In US20250228784A1, “ANTIFIBROTIC COMPOSITION” (Sunshine Lake Pharma Co., Ltd., priority 2021, published 2025):

Experiment: Initial research on stability of the active compound on long-term storage
Type: physicochemical
Conditions: active compound alone, not formulated

For `CCCCCCN(CCCCCC)c1ccc(-n2c(C)nc(C)cc2=O)cc1F` [compound having formula (I), 3-(4-(dihexylamino)-3-fluorophenyl)-2,6-dimethylpyrimidin-4(3H)-one], the “stability on long-term storage” value was “good stability”.
